Measurements from patent US5284853A, “Angiotensin II receptor blocking 2,3,6 substituted quinazolinones” (American Cyanamid Company, priority 1993, dated 1994).
Values joined by “and” are separate entries in the source; they are usually repeats but may differ in a detail not shown here. Equal entries are not always repeated.

Tested on: Angiotensin II (AII) vasopressor response
Test: AII Challenge: antagonism of the angiotensin II vasopressor response in conscious SHR
Assay type: in vivo, Spontaneously hypertensive rats (Male okamoto-Aoki SHR)
Conditions: for Average Change / Inhibition: n = 2; for Change / Control Before AII / Response After AII: per rat
[1] = 5 mg/kg I.V., AII 0.05 mcg/kg IV, 30 min post dose
[2] = 5 mg/kg I.V., AII 0.05 mcg/kg IV, 60 min post dose
[3] = 5 mg/kg I.V., AII 0.05 mcg/kg IV, 90 min post dose
[4] = 5 mg/kg I.V., AII 0.05 mcg/kg IV, 120 min post dose
[5] = 5 mg/kg I.V., AII 0.05 mcg/kg IV, 180 min post dose
[6] = 5 mg/kg I.V., AII 0.1 mcg/kg IV, 30 min post dose
[7] = 5 mg/kg I.V., AII 0.1 mcg/kg IV, 60 min post dose
[8] = 5 mg/kg I.V., AII 0.1 mcg/kg IV, 90 min post dose
[9] = 5 mg/kg I.V., AII 0.1 mcg/kg IV, 120 min post dose
[10] = 5 mg/kg I.V., AII 0.1 mcg/kg IV, 180 min post dose
[11] = 15 mg/kg I.V., AII 0.05 mcg/kg IV, 30 min post dose
[12] = 15 mg/kg I.V., AII 0.05 mcg/kg IV, 60 min post dose
[13] = 15 mg/kg I.V., AII 0.05 mcg/kg IV, 90 min post dose
[14] = 15 mg/kg I.V., AII 0.05 mcg/kg IV, 120 min post dose
[15] = 15 mg/kg I.V., AII 0.05 mcg/kg IV, 180 min post dose
[16] = 15 mg/kg I.V., AII 0.1 mcg/kg IV, 30 min post dose
[17] = 15 mg/kg I.V., AII 0.1 mcg/kg IV, 60 min post dose
[18] = 15 mg/kg I.V., AII 0.1 mcg/kg IV, 90 min post dose
[19] = 15 mg/kg I.V., AII 0.1 mcg/kg IV, 120 min post dose
[20] = 15 mg/kg I.V., AII 0.1 mcg/kg IV, 180 min post dose

CCCCc1nc2ccc(C3CC(c4ccc(C)o4)=NO3)cc2c(=O)n1Cc1ccc(-c2ccccc2-c2nnn[nH]2)cc1 (stereo not shown) [Example 19]
Average Change [1]: 15.5 mmhg
Inhibition [1]: 72%
Change [1]: 11 mmhg and 20 mmhg
Control Before AII [1]: 165 mmhg and 200 mmhg
Response After AII [1]: 176 mmhg and 180 mmhg
Average Change [2]: 15 mmhg
Inhibition [2]: 73%
Change [2]: 20 mmhg and 10 mmhg
Control Before AII [2]: 160 mmhg and 195 mmhg
Response After AII [2]: 180 mmhg and 205 mmhg
Average Change [3]: 20 mmhg
Inhibition [3]: 64%
Change [3]: 25 mmhg and 15 mmhg
Control Before AII [3]: 155 mmhg and 190 mmhg
Response After AII [3]: 180 mmhg and 205 mmhg
Average Change [4]: 25 mmhg
Inhibition [4]: 55%
Change [4]: 35 mmhg and 15 mmhg
Control Before AII [4]: 150 mmhg and 175 mmhg
Response After AII [4]: 185 mmhg and 190 mmhg
Average Change [5]: 25 mmhg
Inhibition [5]: 55%
Change [5]: 33 mmhg and 17 mmhg
Control Before AII [5]: 165 mmhg and 185 mmhg
Response After AII [5]: 198 mmhg and 202 mmhg
Average Change [6]: 17.5 mmhg
Inhibition [6]: 83%
Change [6]: 20 mmhg and 15 mmhg
Control Before AII [6]: 160 mmhg and 205 mmhg
Response After AII [6]: 180 mmhg and 220 mmhg
Average Change [7]: 21 mmhg
Inhibition [7]: 68%
Change [7]: 25 mmhg and 17 mmhg
Control Before AII [7]: 160 mmhg and 193 mmhg
Response After AII [7]: 185 mmhg and 210 mmhg
Average Change [8]: 24 mmhg
Inhibition [8]: 63%
Change [8]: 25 mmhg and 23 mmhg
Control Before AII [8]: 175 mmhg and 187 mmhg
Response After AII [8]: 200 mmhg and 210 mmhg
Average Change [9]: 22.5 mmhg
Inhibition [9]: 65%
Change [9]: 20 mmhg and 25 mmhg
Control Before AII [9]: 165 mmhg and 175 mmhg
Response After AII [9]: 185 mmhg and 200 mmhg
Average Change [10]: 27.5 mmhg
Inhibition [10]: 58%
Change [10]: 25 mmhg and 30 mmhg
Control Before AII [10]: 170 mmhg and 185 mmhg
Response After AII [10]: 195 mmhg and 215 mmhg
Average Change [11]: 5 mmhg
Inhibition [11]: 83%
Change [11]: 0 mmhg and 10 mmhg
Control Before AII [11]: 165 mmhg and 150 mmhg
Response After AII [11]: 165 mmhg and 160 mmhg
Average Change [12]: 10 mmhg
Inhibition [12]: 67%
Change [12]: 10 mmhg
Control Before AII [12]: 155 mmhg and 150 mmhg
Response After AII [12]: 165 mmhg and 160 mmhg
Average Change [13]: 5 mmhg
Inhibition [13]: 83%
Change [13]: 5 mmhg
Control Before AII [13]: 155 mmhg and 150 mmhg
Response After AII [13]: 160 mmhg and 155 mmhg
Average Change [14]: 7.5 mmhg
Inhibition [14]: 75%
Change [14]: 5 mmhg and 10 mmhg
Control Before AII [14]: 150 mmhg
Response After AII [14]: 155 mmhg and 160 mmhg
Average Change [15]: 7.5 mmhg
Inhibition [15]: 75%
Change [15]: 0 mmhg and 15 mmhg
Control Before AII [15]: 160 mmhg and 140 mmhg
Response After AII [15]: 160 mmhg and 155 mmhg
Average Change [16]: 5 mmhg
Inhibition [16]: 89%
Change [16]: 0 mmhg and 10 mmhg
Control Before AII [16]: 165 mmhg and 160 mmhg
Response After AII [16]: 165 mmhg and 170 mmhg
Average Change [17]: 5 mmhg
Inhibition [17]: 89%
Change [17]: 0 mmhg and 10 mmhg
Control Before AII [17]: 165 mmhg and 160 mmhg
Response After AII [17]: 165 mmhg and 170 mmhg
Average Change [18]: 7.5 mmhg
Inhibition [18]: 83%
Change [18]: 10 mmhg and 5 mmhg
Control Before AII [18]: 155 mmhg and 150 mmhg
Response After AII [18]: 165 mmhg and 155 mmhg
Average Change [19]: 7.5 mmhg
Inhibition [19]: 83%
Change [19]: 10 mmhg and 5 mmhg
Control Before AII [19]: 155 mmhg
Response After AII [19]: 165 mmhg and 160 mmhg
Average Change [20]: 10 mmhg
Inhibition [20]: 78%
Change [20]: 0 mmhg and 20 mmhg
Control Before AII [20]: 170 mmhg and 150 mmhg
Response After AII [20]: 170 mmhg
